Earlier results on one compound are cited in US20130109746A1, “COMPOSITION COMPRISING ELLAGIC ACID AND A PARTICULAR CATIONIC SURFACTANT, AND COSMETIC USE THEREOF” (L'OREAL S.A., priority 2010, published 2013).

The structures appear in SMILES notation.

The conditions of the series: in water and in the solvents and oils commonly used in cosmetic compositions.

For `O=c1oc2c(O)c(O)cc3c(=O)oc4c(O)c(O)cc1c4c23` [ellagic acid, 2,3,7,8-tetrahydroxy(1)benzopyrano(5,4,3-cde)(1)benzopyran-5,10-dione], the solubility result is “very sparingly soluble”.
